Like-named read-outs stand apart in the source and are kept apart here.
Tests used:
[1] = system: mouse hind-limb ischemia model; assay: Laser Doppler hind-limb blood flow, chronic treatment in hind-limb ischemia model; format: in vivo, mouse (C57BL/6J)
Excerpt: (§1) Animals and Reagents. Unless otherwise stated, male wild type (C57BL/6J) mice weighing 20-25 gm and age 2-3 months were used. The mice were bred and housed at the Association for Assessment and Accreditation of Laboratory Animal Care, International-accredited LSUHSC-Shreveport animal resource facility and maintained according to the National Research Council's Guide for Care and Use of Laboratory Animals. All experimental protocols were approved by the LSU Institutional Animal Care and Use Committee. Sodium nitrite, sodium nitrate, phosphate buffered saline (PBS), and all other chemicals were purchased from Sigma Chemical (St. Louis, Mo.). Hind-Limb Ischemia Model. Hind limb ischemia was induced by ligating the left common femoral artery proximal to origin of profunda femoris artery according to Senthilkumar, A., Smith, R. D., Khitha, J., Arora, N., Veerareddy, S., Langston, W., Chidlow, J. H., Jr., Barlow, S. C., Teng, X., Patel, R. P., et al. 2007. Arterioscler Thromb Vase Biol 27:1947-1954. Mice were anesthetized with intraperitoneal injection of ketamine (100 mg/kg) and xylazine (8 mg/kg); surgery was performed […] aseptic conditions. The common femoral vein and femoral nerve were dissected away from the artery. Two ligatures were placed in the common femoral artery proximal to the profunda femoris artery and then transected between the two ligations. The incision was then closed and the ligation was immediately verified by laser Doppler measurement of tissue blood flow.
(§2) Laser Doppler measurements of tissue blood flow. The Vasamedics Laserflo BPM2 deep tissue penetrating laser doppler device was used to measure hind limb blood flow. The tip of laser probe was placed with stable positioning using a probe stand over the medial calf muscle of mice. Readings were recorded in ml of blood flow per 100 g tissue per minute from non-ischemic and ischemic limbs. Daily blood flow measurements were taken before the first nitrite or nitrate injection of a 24 hour period in order to obtain representative steady state changes in perfusion. Percent change in tissue blood flow was determined by dividing ischemic limb blood flow by non-ischemic limb blood flow and multiplied by 100. In a separate series of experiments, blood flow was also measured within 30 seconds after nitrite or nitrate administration to assess acute changes in blood flow.
We examined the effect of a range of sodium nitrite doses on ischemic tissue blood flow in the mouse hind-limb ischemia model described in Example 1. Sodium nitrite was administered via intraperitoneal injection twice a day in a dose range of 8.25-3,300 μg/kg; 15 mice were used per treatment group. Blood flow was measured according the laser Doppler method of Example 1. Changes in ischemic tissue perfusion were determined by measuring ischemic limb blood flow which was divided by the respective contra-lateral non-ischemic limb blood flow to calculate a percent change for each animal.

[2] = system: mouse hind-limb ischemia model; assay: Vascular density (CD31/DAPI) of gastrocnemius muscle tissue; format: in vivo, mouse (C57BL/6J)
Excerpt: as §1
Arterioscler Thromb Vase Biol 27:1947-1954.

[3] = system: endothelial cell proliferation in ischemic gastrocnemicus tissues; assay: Endothelial cell proliferation (Ki67 staining) in gastrocnemius tissue; format: in vivo, mouse (C57BL/6J); conditions: day 3
Excerpt: as §1
The effect of sodium nitrite on endothelial cell proliferation in ischemic gastrocnemicus tissues was analyzed in the hind-limb ischemia model of Example 1.

[4] = system: mouse hind-limb ischemia model; format: in vivo, mouse (C57BL/6J)
Experimental: as §2
Stimulation of angiogenesis alone during chronic ischemia is generally insufficient for restoring tissue perfusion. Increased arteriogenesis through the recruitment and differentiation of smaller arterioles is important to supply newly formed microvasculature. Moreover, an acute increase in vascular shear stress due to increased blood flow is a critical mediator of arteriogenesis. We examined the effect of 165 μg/kg sodium nitrite on acute changes (30 sec) in ischemic and nonischemic tissue perfusion according to the method in Example 1. Ten mice were used per treatment group.

[5] = Experimental: (§3) Measurement of Nitrite, NO Metabolite, Tissue cGMP, and eNOS Protein Levels. Nitrite and tissue NO metabolite levels tissue (nitrosothiol, C- or N-nitroso compounds, or iron-nitrosyl proteins which are collectively referred to SNO+XNO) whether were measured using chemiluminescence techniques according to Lang, J. D., Jr., Teng, X., Chumley, P., Crawford, J. H., Isbell, T. S., Chacko, B. K., Liu, Y., Jhala, N., Crowe, D. R., Smith, A. B., et al. 2007. J Clin Invest. 117:2583-2591. Gastrocnemius muscle tissue cGMP levels were determined using the cGMP ELISA from Cayman Chemical (Ann Arbor, Mich.) according to the manufacturer's directions. Specimens were collected within 2 min after injection of either PBS or sodium nitrite. Total eNOS protein levels in hind-limb tissue were determined by Western blot analysis.
(§4) Analysis of blood and tissue nitrite levels in nitrate-treated and control animals was performed according to the method in Example 1.

eNOS protein = conditions: 165 μg/kg
Experimental: as §3, §4

SNO+XNO = conditions: 165 μg/kg
Experimental: as §3
The effect of nitrite treatment on levels of the NO metabolites, SNO and XNO was measure according to the method in Example 1. Twenty mice were used per treatment group.

cGMP = conditions: 165 μg/kg; day 3 or 7
Experimental: as §3

[6] = system: mouse hind-limb ischemia model
Experimental: Vascular casting. Hind limb vascular casting of ischemic limbs was performed using Microfil silicone injection MV120. Before vascular casting, papaverine (5 ng/ml) and adenosine (1 mg/ml) were given intravenously to increase perfusion of the casting resin. Briefly, the abdominal aorta proximal to the femoral artery bifurcation was ligated with 5.0 silk suture material and cannulated caudal to the ligation using PESO tubing held in place with a silk ligature. 400 μl of Microfil was infused into the aortic catheter and allowed to set in situ for 16 hours at 4° C. Hind limb muscle tissue was cleared by incubating tissues in graded glycerol solutions of 40%, 60%, 80%, and 100% for 24 hours each. Vascular casts were subsequently photographed using a stereomicroscope.
To further evaluate arteriogenesis activity, we performed hind-limb ligations distal to the profunda femoris and proximal to the knee to more easily distinguish changes in the arterial supply. […] Arterial casts were made according to the method in Example 1.

[7] = system: ischemic hind limb of C57BL/6J mice; conditions: 165 μg/kg single I.P. bolus 45 minutes after ligation; 7 day period
Experimental: Permanent femoral artery ligation was performed on the left hind limb of C57BL/6J mice (n=3 per treatment group) according to the method in Example 1. A single bolus injection of either PBS or sodium nitrite (165 μg/kg) was given I.P. 45 minutes after completing the ligation. Blood flow recovery was monitored every other day over a 7 day period to evaluate the efficacy of single bolus injection therapy. […] “Day 0 Pre” on the x-axis refers to blood flow on the day of ligation before the ligation was performed; “Day 0 Post” on the x-axis refers to blood flow on the day of ligation after the ligation was performed.

[8] = system: ischemic hind limb of C57BL/6J mice; conditions: 165 μg/kg I.P. b.i.d. started day 5 post-ligation
Experimental: We also evaluated the effect of delaying chronic sodium nitrite treatment on restoration of hind limb blood flow. Permanent femoral artery ligation was performed on the left hind limb of C57BL/6J mice (n=6 per treatment group) as described in Example 1. […] Blood flow recovery was monitored throughout the study using deep tissue penetrating laser Doppler as described in Example 1. […] “Day 0 Pre” on the x-axis refers to blood flow on the day of ligation before the ligation was performed; “Day 0 Post” on the x-axis refers to blood flow on the day of ligation after the ligation was performed.

[9] = system: ischemic hind limb of Db/Db diabetic mice
Experimental: We evaluated the effect of sodium nitrite treatment on ischemic hind limb blood flow in a diabetic mouse model. Permanent femoral artery ligation was performed on the left hind limb of Db/Db diabetic mice (n=5 per treatment group) according to the methods in Examples 1 and 2, except that the mice were anesthetized with 2% inhaled isofluorane. […] Blood flow recovery was monitored throughout the study using deep tissue penetrating laser Doppler according to the method in Example 1.

[10] = system: excisional wounds in C57BL/6J mice; conditions: for percent wound surface remaining vs PBS-treated controls: 165 μg/kg I.P. b.i.d.
Experimental: Full thickness excisional wounds were created using a 4 mm punch biopsy device. C57BL/6J mice were anesthetized according to the method in Example 1. Wounds were created by pinching the loose skin and punching a half circle biopsy to obtain a uniform 4 mm diameter wound (n=4 per treatment group). […] Wound diameter was measured using digital calipers and plotted as the percent wound surface area remaining at each successive day.

O=[N+]([O-])[O-].[Na+] [sodium nitrate, reference compound]
ischemic limb blood flow ([1]; lowest dose 8.25 μg/kg, by days 5 and 7): augmented ischemic limb blood flow

CC1(C)N([O])C(c2ccc(C(=O)O)cc2)=[N+]([O-])C1(C)C [carboxy PTIO, 2-(4-Carboxyphenyl)-4,4,5,5-tetramethylimidazoline-1-oxyl-3-oxide, reference compound]
effect of NO scavenger on ability of sodium nitrite to restore ischemic limb blood flow ([1]; carboxy PTIO 1 mg/kg daily plus sodium nitrite 165 μg/kg): significantly attenuated | effect of cPTIO cotreatment on nitrite augmentation of angiogenesis in ischemic hind limbs ([2]; cPTIO plus sodium nitrite 165 μg/kg, days 3 and 7): prevented nitrite augmentation of angiogenesis | effect of cPTIO on nitrite-induced increase in Ki67 to CD31 colocalization ([3]; cPTIO plus sodium nitrite, ischemic tissue): blocked | effect of carboxy PTIO on nitrite-induced increase in Ki67 nuclear localization ([3]; carboxy PTIO plus sodium nitrite, ischemic tissue): blocked | effect of cPTIO on nitrite-dependent acute tissue blood flow change ([4]; mouse, in vivo): significantly blunted

O=NO [sodium nitrite]
temporal efficacy on ischemic blood flow compared to higher and lower doses ([1]; 165 μg/kg i.p. twice a day): optimal temporal efficacy | hind limb blood flow in the nonischemic limbs ([1]; 165 μg/kg i.p., nonischemic limb): neither PBS nor sodium nitrite altered | blood flow after injection in hind limbs ischemic for 24 h ([1]; 165 μg/kg injection): enhanced blood flow | percentage blood flow in ischemic hind limbs ([1]; 8.25, 16.5, 165 and 3,300 μg/kg i.p. twice a day, by day 3 post ligation, progressively increased by day 7, vs PBS): increased the percentage blood flow | endothelial staining of CD31 in ischemic muscle tissue ([2]; 165 μg/kg, day 7, compared to PBS or sodium nitrate controls): much more abundant | nonischemic tissue vascular density ([2]; 165 μg/kg, day 7, nonischemic gastrocnemius): did not significantly alter | vascular density of ischemic gastrocnemius muscle ([2]; 165 μg/kg, days 3 and 7, compared to PBS or sodium nitrate): significantly increased | augmentation of ischemic tissue vascular density, high dose vs low dose ([2]; 3,300 μg/kg compared to 165 μg/kg): less potent | Ki67 nuclear localization (colocalization with DAPI) ([3]; 165 μg/kg, ischemic tissue): significantly increased | Ki67 to CD31 colocalization ([3]; 165 μg/kg, ischemic tissue): significantly increased | Ki67 nuclear localization (colocalization with DAPI) ([3]; 165 μg/kg, non-ischemic tissue): but not non-ischemic tissues | blood levels of nitrite ([5]; 165 μg/kg chronic therapy, days 3 and 7): significantly decreased over time | tissue nitrite levels ([5]; 165 μg/kg, day 3, ischemic tissue): significantly increased | tissue nitrite levels, nitrite-treated vs PBS-treated ([5]; 165 μg/kg, day 7): did not differ significantly | eNOS protein expression (eNOS protein; day 3, ischemic hind-limb tissue): significantly decreased | eNOS protein expression (eNOS protein; day 3, nonischemic hind-limb tissue): without altering expression | eNOS protein expression (eNOS protein; day 7, ischemic tissue): no effect | eNOS protein expression (eNOS protein; day 7, nonischemic tissue): reduced | tissue SNO+XNO levels (SNO+XNO; day 3): Neither sodium nitrite (165 μg/kg) nor PBS significantly altered | SNO+XNO levels in ischemic tissue (SNO+XNO; day 7, compared to PBS): significantly increased | tissue cGMP levels (cGMP): neither 165 μg/kg sodium nitrite nor PBS significantly altered | acute blood flow change under chronic nitrite therapy ([4]; 165 μg/kg, days 3 and 7): lesser, yet still significant, increase | acute enhancement of ischemic tissue blood flow ([4]; mouse, in vivo): 92.3±18% | duration of increased blood flow after injection ([4]; mouse, in vivo): > 10 min | collateral vessels in arterial cast of ischemic limb ([6]; day 7, vascular casting): Numerous collateral vessels | number of arterial branch points ([6]; ligation distal to profunda femoris, vs PBS-treated controls): significantly greater | ischemic hind limb blood flow recovery after single bolus [7]: did not restore | ischemic hind limb blood flow recovery with delayed therapy [8]: restored | ischemic hind-limb blood flow recovery in diabetic mice ([9]; 165 μg/kg I.P. b.i.d. started post-ligation): restored | blood flow in ischemic hind limbs vs PBS-treated controls ([9]; 165 μg/kg I.P. b.i.d., all time points analyzed): significantly greater | blood flow in ischemic hind limbs relative to preligation ([9]; 165 μg/kg I.P. b.i.d., by the end of the study): approached preligation levels | excision wound healing ([10]; 165 μg/kg I.P. b.i.d. from wounding, 4 mm wound): enhanced | percent wound surface remaining vs PBS-treated controls ([10]; first six days of the study): significantly less | percent wound surface remaining vs PBS-treated controls ([10]; remaining four days): lower
